Test system: glycogen synthase
Experiment: Glycogen Synthase (GS) Assay
Format: biochemical
Conditions: coupled pyruvate kinase/lactate dehydrogenase assay, absorbance at 340 nm; for EC50: compound concentration needed to give 50% maximum activation; for GS SC200: compound concentration needed to stimulate 200% of the enzyme activity
Experimental: The following tests were carried out in order to determine the activity of the compounds of formula (I).
Twelve μL per well of substrate solution containing glycogen (4.32 mg/ml), 2.67 mM UDP-glucose, 21.6 mM phospho(enol)pyruvate and 2.7 mM NADH in 30 mM glycylglycine, pH 7.3 buffer was added into a polystyrene 384-well assay plate (BD Biosciences).
Compound solutions (8 μL/well) at various concentrations (0-300 μM) were added to the assay plate (columns 5-24). Compound solution contains 30 mM glycylglycine, pH 7.3, 40 mM KCl, 20 mM MgCl2, 9.2% DMSO, with (columns 15-24) or without (columns 5-14) 20 mM glucose 6-phosphate.
Enzyme solution (12 μL/well) containing glycogen synthase (16.88 μg/ml), pyruvate kinase (0.27 mg/ml), lactate dehydrogenase (0.27 mg/ml) in 50 mM Tris-HCl, pH 8.0, 27 mM DTT and bovine serum albumin (BSA, 0.2 mg/ml) was added to the assay plate (columns 3-24). As a blank control, enzyme solution without glycogen synthase was added into the top half wells of columns 1-2. To the bottom half wells of columns 1-2 were added a known activator, glucose 6-phosphate (at final concentration 5 mM) in addition to the enzyme solution. The reaction mixture was incubated at room temperature. The assay plate was then read for absorbance at 340 nm on an Envision reader every 3 minutes up to a total of 15 minutes.
The enzyme activity (with or without compound) was calculated by the reaction rate and represented by the optical density change (δOD) per minute. Percent stimulation of glycogen synthase activity by a compound at various concentrations was calculated by the following formula: […]
Where Rs is the reaction rate of the enzyme in the presence of compound and Rt is the reaction rate of the enzyme in the absence of compound.
SC200 is defined as the compound concentration that is needed to stimulate 200% of the enzyme activity. EC50 is defined as the compound concentration that is needed to give 50% maximum activation.
Compounds from Examples 1 through Example 64 were assayed according to assay procedures described above and the result is listed in Table 1 below: […]

SMILES | EC50 [nM] | GS SC200 [µM]
CCOC(=O)N(CC(=O)O)Cc1cccc(COc2ccc(-c3cc(F)c(F)cc3OC)cc2)c1 [Example 20, {[3-(4′,5′-Difluoro-2′-methoxy-biphenyl-4-yloxymethyl)-benzyl]-ethoxycarbonyl-amino}-acetic acid] | 5240 | 0.50
COc1cc(F)c(F)cc1-c1ccc(OCc2cncc(CN3C(C(=O)O)CCS3(=O)=O)c2)cc1 (stereo not drawn) [Example 63, 2-[5-(4′,5′-Difluoro-2′-methoxy-biphenyl-4-yloxymethyl)-pyridin-3-ylmethyl]-1,1-dioxo-1lambda*6*-isothiazolidine-3-carboxylic acid] | 550 | 0.01
O=C(O)[C@H]1CCS(=O)(=O)N1Cc1cccc(COc2ccc(-c3cc(F)c(F)cc3Cl)cc2)c1 [Example 50, (R)-2-[3-(2′-Chloro-4′,5′-difluoro-biphenyl-4-yloxymethyl)-benzyl]-1,1-dioxo-1lambda*6*-isothiazolidine-3-carboxylic acid] | 840 | 0.42
COc1cc(F)c(F)cc1-c1ccc(OCc2cccc(CN(CC(=O)O)S(=O)(=O)C3CC3)c2)cc1 [Example 9, {Cyclopropanesulfonyl-[3-(4′,5′-difluoro-2′-methoxy-biphenyl-4-yloxymethyl)-benzyl]-amino}-acetic acid] | 520 | 0.06
O=C(O)[C@H]1CCS(=O)(=O)N1Cc1cccc(COc2ccc(-c3cc(F)c(F)cc3F)cc2)c1 [Example 47, (R)-1,1-Dioxo-2-[3-(2′,4′,5′-trifluoro-biphenyl-4-yloxymethyl)-benzyl]-1lambda*6*-isothiazolidine-3-carboxylic acid] | 1820 | 0.62
O=C(O)CN(Cc1cccc(COc2ccc(-c3ccc(F)cc3F)cc2)c1)C(=O)c1ccccn1 [Example 16, [[3-(2′,4′-Difluoro-biphenyl-4-yloxymethyl)-benzyl]-(pyridine-2-carbonyl)-amino]-acetic acid] | 1540 | 0.43
COc1cc(F)c(F)cc1-c1ccc(OCc2cccc(CN(CC(=O)O)C(=O)C3CCN(C)CC3)c2)cc1 [Example 32, [[3-(4′,5′-Difluoro-2′-methoxy-biphenyl-4-yloxymethyl)-benzyl]-(1-methyl-piperidine-4-carbonyl)-amino]-acetic acid] | 610 | 0.07

Compounds with a lower EC50, results first:

EC50 [nM] | SMILES | GS SC200 [µM]
90 | O=C(O)[C@@H]1CCS(=O)(=O)N1Cc1cccc(COc2ccc(-c3cc(F)c(F)cc3F)cc2)c1 [Example 46, (S)-1,1-Dioxo-2-[3-(2′,4′,5′-trifluoro-biphenyl-4-yloxymethyl)-benzyl]-1lambda*6*-isothiazolidine-3-carboxylic acid] | 0.01
430 | COc1cc(F)c(F)cc1-c1ccc(OCc2cccc(CN(CC(=O)O)C(C)=O)c2)cc1 [Example 21, {Acetyl-[3-(4′,5′-difluoro-2′-methoxy-biphenyl-4-yloxymethyl)-benzyl]-amino}-acetic acid] | 0.16
330 | COc1cc(F)c(F)cc1-c1ccc(OCc2cccc(CN3[C@@H](C(=O)O)CCCS3(=O)=O)c2)cc1 [Example 55, (R)-2-[3-(4′,5′-Difluoro-2′-methoxy-biphenyl-4-yloxymethyl)-benzyl]-1,1-dioxo-1lambda*6*-[1,2]thiazinane-3-carboxylic acid] | 0.16
120 | COc1cc(F)c(F)cc1-c1ccc(OCc2cccc(CN3C(=O)CC[C@H]3C(=O)O)c2)cc1 [Example 52, (S)-1-[3-(4′,5′-Difluoro-2′-methoxy-biphenyl-4-yloxymethyl)-benzyl]-5-oxo-pyrrolidine-2-carboxylic acid] | 0.02
180 | O=C(O)C1CCS(=O)(=O)N1Cc1cc(COc2ccc(-c3ccc(F)cc3F)cc2)ccc1F (stereo not drawn) [Example 42, 2-[5-(2′,4′-Difluoro-biphenyl-4-yloxymethyl)-2-fluoro-benzyl]-1,1-dioxo-1lambda*6*-isothiazolidine-3-carboxylic acid] | 0.06
